Experiments:
Assay type in all cases: functional
COLO 205 = assay: Growth inhibition of human COLO205 cells assessed as cell growth incubated for 48 hrs by sulforhodamine B assay; design: concentration or dose not given beside the values
CCRF-CEM = assay: Growth inhibition of human CCRF-CEM cells assessed as cell growth incubated for 48 hrs by sulforhodamine B assay; design: concentration or dose not given beside the values
NCI/ADR-RES = assay: Growth inhibition of human NCI/ADR-RES cells assessed as cell growth incubated for 48 hrs by sulforhodamine B assay; design: concentration or dose not given beside the values
OVCAR-5 = assay: Growth inhibition of human OVCAR5 cells assessed as cell growth incubated for 48 hrs by sulforhodamine B assay; design: scale not given: the % may be the effect or the level left
NCI-H23 = assay: Growth inhibition of human NCI-H23 cells assessed as cell growth incubated for 48 hrs by sulforhodamine B assay; design: concentration or dose not given beside the values
SF-268 = assay: Growth inhibition of human SF268 cells assessed as cell growth incubated for 48 hrs by sulforhodamine B assay; design: concentration or dose not given beside the values
RXF 393 = assay: Growth inhibition of human RXF393 cells assessed as cell growth incubated for 48 hrs by sulforhodamine B assay; design: concentration or dose not given beside the values
SK-MEL-28 = assay: Growth inhibition of human SK-MEL-28 cells assessed as cell growth incubated for 48 hrs by sulforhodamine B assay; design: concentration or dose not given beside the values
OVCAR-4 = assay: Growth inhibition of human OVCAR4 cells assessed as cell growth incubated for 48 hrs by sulforhodamine B assay; design: concentration or dose not given beside the values
TK-10 = assay: Growth inhibition of human TK10 cells assessed as cell growth incubated for 48 hrs by sulforhodamine B assay; design: concentration or dose not given beside the values
HCC 2998 = assay: Growth inhibition of human HCC2998 cells assessed as cell growth incubated for 48 hrs by sulforhodamine B assay; design: concentration or dose not given beside the values
T47D = assay: Growth inhibition of human T47D cells assessed as cell growth incubated for 48 hrs by sulforhodamine B assay; design: concentration or dose not given beside the values
U-251 = assay: Growth inhibition of human U251 cells assessed as cell growth incubated for 48 hrs by sulforhodamine B assay; design: concentration or dose not given beside the values
SNB-19 = assay: Growth inhibition of human SNB19 cells assessed as cell growth incubated for 48 hrs by sulforhodamine B assay; design: concentration or dose not given beside the values
Hs-578T = assay: Growth inhibition of human Hs 578T cells assessed as cell growth incubated for 48 hrs by sulforhodamine B assay; design: concentration or dose not given beside the values
SK-MEL-2 = assay: Growth inhibition of human SK-MEL-2 cells assessed as cell growth incubated for 48 hrs by sulforhodamine B assay; design: concentration or dose not given beside the values
MDA-MB-435 = assay: Growth inhibition of human MDA-MB-435 cells assessed as cell growth incubated for 48 hrs by sulforhodamine B assay; design: concentration or dose not given beside the values
HT-29 = assay: Growth inhibition of human HT-29 cells assessed as cell growth incubated for 48 hrs by sulforhodamine B assay; design: concentration or dose not given beside the values
SN12C = assay: Growth inhibition of human SN12C cells assessed as cell growth incubated for 48 hrs by sulforhodamine B assay; design: concentration or dose not given beside the values
SNB-75 = assay: Growth inhibition of human SNB75 cells assessed as cell growth incubated for 48 hrs by sulforhodamine B assay; design: concentration or dose not given beside the values
MOLT-4 = assay: Growth inhibition of human MOLT4 cells assessed as cell growth incubated for 48 hrs by sulforhodamine B assay; design: concentration or dose not given beside the values
SK-MEL-5 = assay: Growth inhibition of human SK-MEL-5 cells assessed as cell growth incubated for 48 hrs by sulforhodamine B assay; design: concentration or dose not given beside the values
SW-620 = assay: Growth inhibition of human SW620 cells assessed as cell growth incubated for 48 hrs by sulforhodamine B assay; design: concentration or dose not given beside the values
786-0 = assay: Growth inhibition of human 786-0 cells assessed as cell growth incubated for 48 hrs by sulforhodamine B assay; design: concentration or dose not given beside the values
HOP-92 = assay: Growth inhibition of human HOP92 cells assessed as cell growth incubated for 48 hrs by sulforhodamine B assay; design: concentration or dose not given beside the values
SF-295 = assay: Growth inhibition of human SF295 cells assessed as cell growth incubated for 48 hrs by sulforhodamine B assay; design: concentration or dose not given beside the values
PC-3 = assay: Growth inhibition of human PC3 cells assessed as cell growth incubated for 48 hrs by sulforhodamine B assay; design: concentration or dose not given beside the values
NCI-H226 = assay: Growth inhibition of human NCI-H226 cells assessed as cell growth incubated for 48 hrs by sulforhodamine B assay; design: concentration or dose not given beside the values
K562 = assay: Growth inhibition of human K562 cells assessed as cell growth incubated for 48 hrs by sulforhodamine B assay; design: concentration or dose not given beside the values
UO-31 = assay: Growth inhibition of human UO31 cells assessed as cell growth incubated for 48 hrs by sulforhodamine B assay; design: concentration or dose not given beside the values
SK-OV-3 = assay: Growth inhibition of human SKOV3 cells assessed as cell growth incubated for 48 hrs by sulforhodamine B assay; design: concentration or dose not given beside the values
SF-539 = assay: Growth inhibition of human SF539 cells assessed as cell growth incubated for 48 hrs by sulforhodamine B assay; design: scale not given: the % may be the effect or the level left
NCI-H522 = assay: Growth inhibition of human NCI-H522 cells assessed as cell growth incubated for 48 hrs by sulforhodamine B assay; design: concentration or dose not given beside the values
KM12 = assay: Growth inhibition of human KM12 cells assessed as cell growth incubated for 48 hrs by sulforhodamine B assay; design: concentration or dose not given beside the values
OVCAR-3 = assay: Growth inhibition of human OVCAR3 cells assessed as cell growth incubated for 48 hrs by sulforhodamine B assay; design: concentration or dose not given beside the values
OVCAR-8 = assay: Growth inhibition of human OVCAR8 cells assessed as cell growth incubated for 48 hrs by sulforhodamine B assay; design: concentration or dose not given beside the values
DU-145 = assay: Growth inhibition of human DU145 cells assessed as cell growth incubated for 48 hrs by sulforhodamine B assay; design: concentration or dose not given beside the values
HCT-116 = assay: Growth inhibition of human HCT116 cells assessed as cell growth incubated for 48 hrs by sulforhodamine B assay; design: concentration or dose not given beside the values
UACC-257 = assay: Growth inhibition of human UACC257 cells assessed as cell growth incubated for 48 hrs by sulforhodamine B assay; design: concentration or dose not given beside the values
BT-549 = assay: Growth inhibition of human BT549 cells assessed as cell growth incubated for 48 hrs by sulforhodamine B assay; design: concentration or dose not given beside the values
SR = assay: Growth inhibition of human SR cells assessed as cell growth incubated for 48 hrs by sulforhodamine B assay; design: concentration or dose not given beside the values
CAKI-1 = assay: Growth inhibition of human Caki1 cells assessed as cell growth incubated for 48 hrs by sulforhodamine B assay; design: concentration or dose not given beside the values
MDA-MB-468 = assay: Growth inhibition of human MDA-MB-468 cells assessed as cell growth incubated for 48 hrs by sulforhodamine B assay; design: concentration or dose not given beside the values
A498 = assay: Growth inhibition of human A498 cells assessed as cell growth incubated for 48 hrs by sulforhodamine B assay; design: concentration or dose not given beside the values
NCI-H322M = assay: Growth inhibition of human NCI-H322M cells assessed as cell growth incubated for 48 hrs by sulforhodamine B assay; design: scale not given: the % may be the effect or the level left
UACC-62 = assay: Growth inhibition of human UACC62 cells assessed as cell growth incubated for 48 hrs by sulforhodamine B assay; design: concentration or dose not given beside the values
MDA-MB-231 = assay: Growth inhibition of human MDA-MB-231 cells assessed as cell growth incubated for 48 hrs by sulforhodamine B assay; design: concentration or dose not given beside the values
ACHN = assay: Growth inhibition of human ACHN cells assessed as cell growth incubated for 48 hrs by sulforhodamine B assay; design: scale not given: the % may be the effect or the level left
HCT-15 = assay: Growth inhibition of human HCT15 cells assessed as cell growth incubated for 48 hrs by sulforhodamine B assay; design: scale not given: the % may be the effect or the level left
IGROV-1 = assay: Growth inhibition of human IGROV1 cells assessed as cell growth incubated for 48 hrs by sulforhodamine B assay; design: scale not given: the % may be the effect or the level left
HL-60(TB) = assay: Growth inhibition of human HL-60(TB) cells assessed as cell growth incubated for 48 hrs by sulforhodamine B assay; design: concentration or dose not given beside the values
A549 = assay: Growth inhibition of human A549/ATCC cells assessed as cell growth incubated for 48 hrs by sulforhodamine B assay; design: concentration or dose not given beside the values
LOX IMVI = assay: Growth inhibition of human LOXIMVI cells assessed as cell growth incubated for 48 hrs by sulforhodamine B assay; design: concentration or dose not given beside the values
MCF7 = assay: Growth inhibition of human MCF7 cells assessed as cell growth incubated for 48 hrs by sulforhodamine B assay; design: concentration or dose not given beside the values
HOP-62 = assay: Growth inhibition of human HOP62 cells assessed as cell growth incubated for 48 hrs by sulforhodamine B assay; design: concentration or dose not given beside the values
Malme-3M = assay: Growth inhibition of human MALME-3M cells assessed as cell growth incubated for 48 hrs by sulforhodamine B assay; design: scale not given: the % may be the effect or the level left
RPMI-8226 = assay: Growth inhibition of human RPMI8226 cells assessed as cell growth incubated for 48 hrs by sulforhodamine B assay; design: concentration or dose not given beside the values
M14 = assay: Growth inhibition of human M14 cells assessed as cell growth incubated for 48 hrs by sulforhodamine B assay; design: concentration or dose not given beside the values
NCI-H460 = assay: Growth inhibition of human NCI-H460 cells assessed as cell growth incubated for 48 hrs by sulforhodamine B assay; design: concentration or dose not given beside the values

O=c1c2ccccc2c(=O)c2c1sc1c(=O)c3ccc(CCCO)cc3c(=O)c12
Activity (COLO 205): -100%
Activity (CCRF-CEM): -42.44%
Activity (NCI/ADR-RES): -22.56%
Activity (OVCAR-5): -95.91%
Activity (NCI-H23): -39.8%
Activity (SF-268): -52.35%
Activity (RXF 393): -77.25%
Activity (SK-MEL-28): -91.59%
Activity (OVCAR-4): -100%
Activity (TK-10): -94.99%
Activity (HCC 2998): -89.21%
Activity (T47D): -45.39%
Activity (U-251): -92.1%
Activity (SNB-19): -83.74%
Activity (Hs-578T): -11.73%
Activity (SK-MEL-2): -72.58%
Activity (MDA-MB-435): -94.78%
Activity (HT-29): -50.87%
Activity (SN12C): -85.36%
Activity (SNB-75): -96.48%
Activity (MOLT-4): -48.47%
Activity (SK-MEL-5): -100%
Activity (SW-620): -71.53%
Activity (786-0): -90.2%
Activity (HOP-92): -25.51%
Activity (SF-295): -93.12%
Activity (PC-3): -10.27%
Activity (NCI-H226): -53.49%
Activity (K562): -26.48%
Activity (UO-31): -96.45%
Activity (SK-OV-3): -74.3%
Activity (SF-539): -100%
Activity (NCI-H522): -73.7%
Activity (KM12): -60.46%
Activity (OVCAR-3): -43.56%
Activity (OVCAR-8): -30.24%
Activity (DU-145): -98.88%
Activity (HCT-116): -56.49%
Activity (UACC-257): -98.14%
Activity (BT-549): -95.56%
Activity (SR): -22.18%
Activity (CAKI-1): -39.14%
Activity (MDA-MB-468): -69.73%
Activity (A498): -93%
Activity (NCI-H322M): -96.79%
Activity (UACC-62): -88.56%
Activity (MDA-MB-231): -36.34%
Activity (ACHN): -100%
Activity (HCT-15): -68.1%
Activity (IGROV-1): -77.75%
Activity (HL-60(TB)): -39.5%
Activity (A549): -66.71%
Activity (LOX IMVI): -80.49%
Activity (MCF7): -57.56%
Activity (HOP-62): -100%
Activity (Malme-3M): -94.59%
Activity (RPMI-8226): -37.51%
Activity (M14): -94.97%
Activity (NCI-H460): -65.79%
